Experimental data taken from ChEMBL document CHEMBL1201862, “PubChem BioAssay data set” (2004).
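Where inhibition never reached the appropriate level, the endpoint shown equals the highest concentration tested. Otherwise, values were interpolated linearly from a five-concentration, 48-hour dose response in 96-well plates. Abbreviation: GI50, concentration required for 50% inhibition of growth.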 Active and inactive are the calls of the source. Cut-off read from the data, not from the text of the source: active = GI50 up to about 1.1 µM and inactive = higher.

Experiments:
Experiment in all cases: DTP human tumour cell line panel, 48 h
[1] = test system: XF498
[2] = test system: M19-MEL
[3] = test system: HOP-18
[4] = test system: LXFL 529
[5] = test system: KM-20L2
[6] = test system: SNB-78
[7] = test system: T47D
[8] = test system: DMS-114
[9] = test system: RXF 631

Compound | GI50 [2] | GI50 [4] | GI50 [5] | GI50 [6] | GI50 [7] | also measured
CCCCn1c(-c2ccccc2)cs/c1=N\NC(=O)Cn1c(C)nc2ccccc21 | 30.4 µM (inactive) | 25.1 µM (inactive) | 84.9 µM (inactive) | > 100 µM (inactive) | – | GI50 [1]: 31.9 µM (inactive); GI50 [3]: > 100 µM (inactive)
Cc1ccc(NC2=CC(=O)C(NO)c3ccccc32)cc1 (stereo unspecified) | – | – | – | – | 2.74 µM (inactive) | –
Clc1ccc(CN2CCCN(Cc3ccc(Cl)cc3)C2c2cc3ccccc3c3ccccc23)cc1 | – | – | – | – | 32.4 µM (inactive) | –
Cc1cccc(C)c1NC(=O)/C=C/c1ccccc1 | – | – | – | – | > 100 µM (inactive) | –
COc1ccc(C(=O)C(CO)Oc2ccccc2OC)cc1OC (stereo unspecified) | > 100 µM (inactive) | > 100 µM (inactive) | > 100 µM (inactive) | > 100 µM (inactive) | – | GI50 [1]: > 100 µM (inactive); GI50 [8]: > 100 µM (inactive); GI50 [9]: > 100 µM (inactive)
C=C1C(=O)OC2CC3(C)OC3CC/C(C)=C/C(OC(C)=O)C12 (stereo unspecified) | 8.04 µM (inactive) | 2.14 µM (inactive) | 6.55 µM (inactive) | 9.44 µM (inactive) | 3.76 µM (inactive) | GI50 [1]: 2 µM (inactive); GI50 [8]: 7.4 µM (inactive); GI50 [3]: 10.4 µM (inactive)
CCOC(=O)C12C(=O)CCN1CCc1ccccc1C2C (stereo unspecified) | – | – | – | – | > 100 µM (inactive) | –
O=C1NC2(CCCCC2)C2CCCCC=C12 (stereo unspecified) | > 100 µM (inactive) | > 100 µM (inactive) | – | > 100 µM (inactive) | – | GI50 [1]: > 100 µM (inactive); GI50 [8]: > 100 µM (inactive); GI50 [3]: > 100 µM (inactive)
CC(=O)O[C@@H]1C[C@]2(C(=O)c3ccccc3)C(=O)C(=O)S[C@]12c1ccccc1 | – | – | – | – | 28.3 µM (inactive) | –
CCOC(=O)C(NC(=O)CC)(Nc1ccc(S(=O)(=O)Nc2ncccn2)cc1)C(F)(F)F (stereo unspecified) | – | – | – | – | > 100 µM (inactive) | –
O=c1cc(NNc2ccccc2F)[nH]c(=O)[nH]1 | – | – | – | – | 0.679 µM (active) | –
O=C(OCC(Cl)(Cl)Cl)N1CC[C@@H](C2CCCCC2)C1 | – | – | – | – | 32.7 µM (inactive) | –
COc1nc(N)c(NC2OC(CO)C(O)C2O)c(=O)[nH]1 (stereo unspecified) | – | – | – | – | > 100 µM (inactive) | –
COc1cc(OC(C)=O)cc2c(OC(C)=O)ccc(OC(C)=O)c12 | – | > 100 µM (inactive) | > 100 µM (inactive) | > 100 µM (inactive) | – | –
CC(C)CC(NP(=O)(O)OC1OC(C)C(O)C(O)C1O)C(=O)NC(Cc1c[nH]c2ccccc12)C(=O)O (stereo unspecified) | – | – | – | – | > 100 µM (inactive) | –
COc1cc(S(=O)(=O)Nc2ccc(-c3csc(/N=C\c4cccs4)n3)cc2)ccc1Cl | – | – | – | – | 19.2 µM (inactive) | –
CC(C)(C)OC(=O)NC1CCC[C@H]1O (stereo partly specified) | > 100 µM (inactive) | > 100 µM (inactive) | > 100 µM (inactive) | > 100 µM (inactive) | – | GI50 [1]: > 100 µM (inactive); GI50 [8]: > 100 µM (inactive); GI50 [9]: > 100 µM (inactive)

Compound | GI50 [2] | GI50 [4] | GI50 [5] | GI50 [6] | GI50 [7] | also measured
COc1ccc2c3c1OC1c4[nH]c5ccccc5c4CC4(O)C(C2)N(C)CCC314 (stereo unspecified) | – | – | – | – | 20.8 µM (inactive) | –
O=C(c1ccc(Cl)cc1)c1ccc(OCCSCCCCCCCCCCSCCOc2ccc(C(=O)c3ccc(Cl)cc3)cc2)cc1 | > 100 µM (inactive) | – | > 100 µM (inactive) | > 100 µM (inactive) | – | GI50 [9]: > 100 µM (inactive)
CC(=O)NN/C=N/C(C#N)=C(\N)C#N | – | – | – | – | > 100 µM (inactive) | –
COc1cccc(C23CCCC(C2)N(C)CC3OC(=O)c2ccccc2)c1OC (stereo unspecified) | – | – | – | – | 20.3 µM (inactive) | –
COc1ccc(CCNC(=O)Cc2ccccc2CO)cc1OC | – | – | – | – | > 100 µM (inactive) | –
COc1cccc(/C=N\NC(=O)C(C)SC(C)C(=O)N/N=C/c2cccc(OC)c2)c1 (stereo unspecified) | > 63.4 µM (inactive) | 33.9 µM (inactive) | 47 µM (inactive) | 36 µM (inactive) | – | GI50 [1]: 53.1 µM (inactive); GI50 [8]: 19.4 µM (inactive)
O=C1Oc2ccccc2C(=O)/C1=C/N1C(=O)N/C(=C\c2ccccc2O)C1=O | – | – | – | – | 34.2 µM (inactive) | –
CC12Cc3cc4c(cc3C1(c1ccc([N+](=O)[O-])cc1)OCCO2)OCO4 (stereo unspecified) | – | – | – | – | > 100 µM (inactive) | –
COc1ccc(-c2oc3c(OC)c(OC)c(OC)c(OC)c3c(=O)c2OC)cc1OC [3,5,6,7,8,3',4'-HEPTAMETHOXYFLAVONE] | – | – | – | – | 22.4 µM (inactive) | –
N=C(N)SCc1cccc(-c2nc3ccccc3c(=O)o2)c1 | – | – | – | – | > 100 µM (inactive) | –
COc1cc(C(=O)C/C(CCC(=O)Nc2ccc(Cl)cc2C)=N/NC(=O)C(N)=O)ccc1O | > 100 µM (inactive) | > 100 µM (inactive) | > 100 µM (inactive) | > 100 µM (inactive) | – | GI50 [1]: > 100 µM (inactive); GI50 [8]: > 100 µM (inactive); GI50 [3]: > 100 µM (inactive)
O=C(O)C1OC(n2cc(F)c(=O)[nH]c2=O)CC1O (stereo unspecified) | > 83.2 µM (inactive) | 8.99 µM (inactive) | 23.8 µM (inactive) | > 26.2 µM (inactive) | > 100 µM (inactive) | GI50 [1]: > 68.2 µM (inactive); GI50 [8]: > 92.3 µM (inactive); GI50 [3]: 40.6 µM (inactive)
Cc1ncc(-c2nnnn2-c2ccccc2)c(C(=O)O)n1 | – | – | – | – | > 100 µM (inactive) | –
COC(=O)[C@H](C)[C@@H]1CC[C@](C)(CCC2=C(C)CCCC2(C)C)OO1 | – | – | – | – | > 25 µM (inactive) | –
Cc1cc2c(c(/C=N/Cc3ccccc3)c1)OC1(C=C2)Oc2ccccc2C(=O)N1C (stereo unspecified) | – | – | – | – | 10.4 µM (inactive) | –
O=C(NC1CCCCC1)c1c(O)[nH]c(=S)[nH]c1=O | > 100 µM (inactive) | > 100 µM (inactive) | > 100 µM (inactive) | 99.1 µM (inactive) | – | GI50 [8]: 88.5 µM (inactive); GI50 [3]: > 100 µM (inactive); GI50 [9]: > 100 µM (inactive)
